Measurements published in PubChem BioAssay (NCI).
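Five concentrations, 48 hours, 96-well plates. GI50 = concentration required for 50% inhibition of growth. The concentration for full growth arrest is given as TGI.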

How the values were obtained:
Experiment in all cases: DTP human tumour cell line panel, 48 h
[1] = test system: SNB-19 CNS
[2] = test system: T-47D breast
[3] = test system: CCRF-CEM leukemia
[4] = test system: A549 NSCLC
[5] = test system: 786-0 renal
[6] = test system: UACC-62 melanoma
[7] = test system: LOX IMVI melanoma
[8] = test system: NCI-H23 lung
[9] = test system: SF-295 CNS
[10] = test system: COLO 205 colon
[11] = test system: IGROV1 ovarian
[12] = test system: M14 melanoma
[13] = test system: TK-10 renal
[14] = test system: SR leukemia
[15] = test system: UACC-257 melanoma
[16] = test system: SK-MEL-5 melanoma
[17] = test system: HOP-62 NSCLC
[18] = test system: RXF 393 renal
[19] = test system: KM12 colon
[20] = test system: ACHN renal
[21] = test system: OVCAR-5 ovarian
[22] = test system: RPMI-8226 leukemia
[23] = test system: MDA-MB-468 breast
[24] = test system: HCT-116 colon
[25] = test system: HOP-92 NSCLC
[26] = test system: OVCAR-8 ovarian
[27] = test system: EKVX NSCLC
[28] = test system: DU-145 prostate
[29] = test system: SK-MEL-2 melanoma
[30] = test system: K-562 leukemia
[31] = test system: HCC-2998 colon
[32] = test system: SF-268 CNS
[33] = test system: OVCAR-3 ovarian
[34] = test system: SK-MEL-28 melanoma
[35] = test system: MOLT-4 leukemia
[36] = test system: A498 renal
[37] = test system: MCF7 breast
[38] = test system: SW-620 colon
[39] = test system: NCI-H460 lung
[40] = test system: CAKI-1 renal
[41] = test system: SNB-75 CNS
[42] = test system: MDA-MB-435
[43] = test system: SK-OV-3 ovarian
[44] = test system: SF-539 CNS
[45] = test system: NCI-H522 lung
[46] = test system: HS 578T breast
[47] = test system: NCI/ADR-RES ovarian
[48] = test system: OVCAR-4 ovarian
[49] = test system: HL-60(TB) leukemia
[50] = test system: U251 CNS
[51] = test system: HCT-15 colon
[52] = test system: PC-3 prostate
[53] = test system: MALME-3M melanoma
[54] = test system: HT29 colon
[55] = test system: MDA-MB-231 breast
[56] = test system: NCI-H226 lung
[57] = test system: BT-549 breast
[58] = test system: UO-31 renal
[59] = test system: SN12C renal

Compound `COc1ccc2oc3c4[nH]c5ccccc5c4c4c(c3c2c1)C(=O)N(C(=O)OC(C)(C)C)C4=O` has a GI50 [1] of 4.21 µM, a TGI [1] of over 100 µM and a GI50 [2] of 1.28 µM. For the same compound, the TGI [2] was 7.23 µM, the GI50 [3] was 2.65 µM and the TGI [3] was over 100 µM. It also gave a GI50 [4] of 2.84 µM, a TGI [4] of 49.3 µM and a GI50 [5] of 3.65 µM. It also gave a TGI [5] of over 100 µM, a GI50 [6] of 2.4 µM and a TGI [6] of 11.9 µM. The GI50 [7] was 3.05 µM, the TGI [7] was 14.1 µM and the GI50 [8] was 2.1 µM. The TGI [8] was 10.6 µM, the GI50 [9] was 2.62 µM and the TGI [9] was 10.9 µM. For the same compound, the GI50 [10] was 3.03 µM, the TGI [10] was 10.3 µM and the GI50 [11] was 2.4 µM. It also gave a TGI [11] of 27.6 µM, a GI50 [12] of 1.22 µM and a TGI [12] of 5 µM. It also gave a GI50 [13] of 2.56 µM, a TGI [13] of over 100 µM and a GI50 [14] of 1.59 µM. The TGI [14] was over 100 µM, the GI50 [15] was 2.49 µM and the TGI [15] was 9.3 µM. It also gave a GI50 [16] of 4.09 µM, a TGI [16] of 16.1 µM and a GI50 [17] of 2.45 µM. It also gave a TGI [17] of 12.2 µM, a GI50 [18] of 3.12 µM and a TGI [18] of 19.2 µM. For the same compound, the GI50 [19] was 0.578 µM, the TGI [19] was 9.28 µM and the GI50 [20] was 1.49 µM. The TGI [20] was 9.22 µM, the GI50 [21] was 2.06 µM and the TGI [21] was 31 µM. The GI50 [22] was 1.83 µM, the TGI [22] was 8.29 µM and the GI50 [23] was 2.84 µM. For the same compound, the TGI [23] was 22 µM, the GI50 [24] was 3.06 µM and the TGI [24] was 24.2 µM. For the same compound, the GI50 [25] was 2.64 µM, the TGI [25] was 41.3 µM and the GI50 [26] was 2.4 µM. It also gave a TGI [26] of 11.1 µM, a GI50 [27] of 3.33 µM and a TGI [27] of 32.2 µM. The GI50 [28] was 3.26 µM, the TGI [28] was over 100 µM and the GI50 [29] was 2.84 µM. For the same compound, the TGI [29] was 10.2 µM, the GI50 [30] was 2.79 µM and the TGI [30] was over 100 µM. The GI50 [31] was 3.98 µM, the TGI [31] was over 100 µM and the GI50 [32] was 3.11 µM. The TGI [32] was 41.6 µM, the GI50 [33] was 3.72 µM and the TGI [33] was 16.7 µM. It also gave a GI50 [34] of 1.67 µM, a TGI [34] of 5.18 µM and a GI50 [35] of 1.47 µM. It also gave a TGI [35] of 5.01 µM, a GI50 [36] of 1.47 µM and a TGI [36] of 9.77 µM. For the same compound, the GI50 [37] was 1.43 µM, the TGI [37] was 12.8 µM and the GI50 [38] was 2.33 µM. For the same compound, the TGI [38] was over 100 µM, the GI50 [39] was 2.32 µM and the TGI [39] was over 100 µM. For the same compound, the GI50 [40] was 2.59 µM, the TGI [40] was 37.4 µM and the GI50 [41] was 3.07 µM. For the same compound, the TGI [41] was 33.8 µM, the GI50 [42] was 1.43 µM and the TGI [42] was 18.3 µM. For the same compound, the GI50 [43] was 2.59 µM, the TGI [43] was 24.3 µM and the GI50 [44] was 3.12 µM. For the same compound, the TGI [44] was 11.5 µM, the GI50 [45] was 2.2 µM and the TGI [45] was 11.6 µM. It also gave a GI50 [46] of 2.5 µM, a TGI [46] of 12.4 µM and a GI50 [47] of 2.6 µM. It also gave a TGI [47] of 15.4 µM, a GI50 [48] of 4.18 µM and a TGI [48] of 89.2 µM. The GI50 [49] was 2.28 µM, the TGI [49] was 9.07 µM and the GI50 [50] was 2.86 µM. For the same compound, the TGI [50] was 28.2 µM, the GI50 [51] was 2.12 µM and the TGI [51] was 10.4 µM. It also gave a GI50 [52] of 1.88 µM, a TGI [52] of over 100 µM and a GI50 [53] of 1.91 µM. It also gave a TGI [53] of 11.3 µM, a GI50 [54] of 2.98 µM and a TGI [54] of over 100 µM. For the same compound, the GI50 [55] was 6.45 µM, the TGI [55] was over 100 µM and the GI50 [56] was 2.52 µM. The TGI [56] was 24.1 µM, the GI50 [57] was 2.09 µM and the TGI [57] was 10.1 µM. For the same compound, the GI50 [58] was 0.9 µM, the TGI [58] was 25.8 µM and the GI50 [59] was 2.25 µM. The TGI [59] was 37.2 µM.
